Measurements published in patent publication US20240189287A1, “PERIPHERALLY RESTRICTED CB1 RECEPTOR BLOCKERS AND USES THEREOF” (BIONANOSIM (BNS) LTD, priority 2021, published 2024).
Entries after “also recorded” stand apart in the source; their conditions may differ.

Key:
P-gp (MDR1) = experiment: MDR1-MDCK II cell permeation assay (bi-directional permeability, P-gp efflux); type: in vitro ADME; conditions: dog, MDCK-MDR1, pH 7.4; 2 μM, A to B, 2.5 hours
Method in brief: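 Compounds at 2 μM (DMSO <1%) in HBSS with 10 mM Hepes, pH 7.4, were applied apically or basolaterally to MDR1-MDCKII monolayers. A-to-B and B-to-A transport was run in duplicate with or without 10 μM GF120918 for 2.5 h at 37° C, 5% CO2. Compounds were quantified by LC-MS/MS, and efflux ratios were determined.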

CB1 receptor [1] = target: CB1 receptor (Homo sapiens (Human), UniProt P21554); experiment: CB1 receptor radioligand binding assay, membranes from human source
Sequence of CB1 receptor (Homo sapiens (Human), UniProt P21554) (P21554 whole entry): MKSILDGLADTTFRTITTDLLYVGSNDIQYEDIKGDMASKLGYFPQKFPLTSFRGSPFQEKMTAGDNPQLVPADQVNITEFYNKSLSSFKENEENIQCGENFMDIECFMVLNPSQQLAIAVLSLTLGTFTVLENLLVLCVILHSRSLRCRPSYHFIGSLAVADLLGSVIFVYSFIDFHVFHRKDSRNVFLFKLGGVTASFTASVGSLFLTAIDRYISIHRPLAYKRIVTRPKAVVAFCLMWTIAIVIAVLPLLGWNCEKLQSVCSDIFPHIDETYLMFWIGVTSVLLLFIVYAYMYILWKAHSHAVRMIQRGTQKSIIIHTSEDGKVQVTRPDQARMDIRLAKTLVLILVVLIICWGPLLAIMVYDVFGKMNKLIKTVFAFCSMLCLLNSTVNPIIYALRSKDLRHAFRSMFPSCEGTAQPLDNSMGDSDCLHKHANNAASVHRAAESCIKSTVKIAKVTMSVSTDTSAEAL
Description: (§1) Radioligand binding assays: Binding affinity was determined by a radioligand binding assay. The different BB8-conjugates binding to CB1 and CB2 receptors was assessed in competition displacement assays using [^3H]CP-55.940 as the radioligand and crude membranes from mouse brain for CB1 receptor and human kidney cells for CB2 receptor.
(§2) CB1 receptor binding assay: Mouse brain membranes were used as the source material for CB1 receptors. The displacement of specifically bound tritiated CP-55.940 from these membranes using a standard filtration assay was used to determine the Ki values for the test compounds. Briefly. 20 μg of protein was incubated for 1 h at 30° C. in the presence of 0.5 nM [^3H]CP-55,940 and various concentrations (10^−5M-10^−11M) of test compound/control, final volume of 1 mL. The incubation was terminated by rapid filtration and washing, and the amount of specifically bound [^3H]CP-55,940 was determined. Briefly, membranes with bound [^3H]CP-55,940 were separated and washed from free ligand by vacuum filtration, adsorbing the membrane onto a Whatman glass microfiber filter paper ([…], Cat #1821271). Finally, the Whatman filter paper with adsorbed membranes was cut and placed in scintillation liquid (Ultima Gold) for 1 h at 25° C. followed by a β counter reading of bound [^3H]CP-55,940 radioligand. All data were in triplicates with Ki values determined using GraphPad Prism 7.02 analysis software. […] In some cases, membranes from human source were used to determine CB1 receptor binding affinity.

mice [2] = experiment: Catalepsy test (bar test), WIN55,212-induced; type: in vivo; conditions: single dose 20 mg/kg PO 30 min prior to WIN55,212 3 mg/kg IP
Description: Catalepsy test: Catalepsy was assayed using the bar test. Briefly, mice were removed from their home cage, and their forepaws were placed on a horizontal bar, 0.5 cm in diameter, positioned 4 cm above the bench surface. Vehicle-treated mice routinely let go of the bar within 2 sec. Cataleptic behavior was defined as the time the animals remained motionless holding on to the bar, with an arbitrary cutoff of 30 sec. The antagonists were given 30 min before the IP injection of 3 mg/kg WIN55,212. The test was performed 60 min after agonist administration.

CB1 receptor [3] = target: T1, CB1 receptor (Mus musculus (Mouse), UniProt P47746); experiment: [35S]GTPγS binding assay for CB1 receptor, mouse brain membranes; type: biochemical; conditions: nature of binding: agonist/antagonist/inverse agonist
T1 sequence (P47746 whole entry): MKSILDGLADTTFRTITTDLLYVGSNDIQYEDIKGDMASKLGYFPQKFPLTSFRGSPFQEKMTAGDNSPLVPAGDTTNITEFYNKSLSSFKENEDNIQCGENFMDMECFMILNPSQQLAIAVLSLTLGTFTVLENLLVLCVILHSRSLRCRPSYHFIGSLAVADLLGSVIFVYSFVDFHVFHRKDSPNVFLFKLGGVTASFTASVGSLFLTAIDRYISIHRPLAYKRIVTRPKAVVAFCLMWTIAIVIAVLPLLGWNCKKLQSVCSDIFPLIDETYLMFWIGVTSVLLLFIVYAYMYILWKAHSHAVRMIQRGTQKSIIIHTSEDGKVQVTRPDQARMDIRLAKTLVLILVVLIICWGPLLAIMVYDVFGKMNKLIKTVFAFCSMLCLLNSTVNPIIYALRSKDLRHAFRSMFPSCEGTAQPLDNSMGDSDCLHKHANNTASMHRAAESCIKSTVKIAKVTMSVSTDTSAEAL
Description: For CB1 receptor-mouse brains were dissected and P2 membranes prepared and resuspended at ˜2 μg protein/μL in 1 ml assay buffer (50 mM Tris HCl, 9 mM MgCl2, 0.2 mM EDTA, 150 mM NaCl; pH 7.4). Ligand-stimulated [^35S]GTPγS binding was assayed as described previously (Tam et al., JCI 2010). Briefly, membranes (10 μg protein) were incubated in assay buffer containing 100 μM GDP, 0.05 nM [^35S]GTPγS, test compounds at various concentrations (CP55940/Rimonabant as controls and test compounds for BB8 conjugates), and 1.4 mg/mL fatty acid-free BSA in siliconized glass tubes. Membranes with bound ligand ([^35S]GTPγS) were separated from free ligand by vacuum filtration and were analyzed using β counter as described above. Non-specific binding was determined using 10 μM GTPS (cold GTP). Basal binding was assayed in the absence of the tested compound and in the presence of GDP.

mice [4] = experiment: Elevated plus-maze, anxiety-related behavior; type: in vivo; conditions: single dose 20 mg/kg PO
Description: Elevated plus-maze: Anxiety-related behaviors were assessed using the EPM test as reported previously. Animals were placed on the 5×5 cm central platform of an apparatus from which four arms, 30 cm×5 cm extended. Two of the arms (the closed arms) are enclosed within 15 cm high walls, and the two other arms (the open arms) have 1 cm high rims. The whole maze is elevated 75 cm above the ground. During the 6 min test time, the number of entries to each arm type (closed or open arms, frequencies) and the time spent in each type of arm (closed or open arms, duration) during the test were measured.

CB1 receptor [5] = target: T1, CB1 receptor; experiment: CB1 receptor radioligand binding assay, [3H]CP-55,940 displacement, mouse brain membranes
Description: as §1, §2

[6] = Pharmacokinetics after oral and IV dosing; type: in vivo, C57BL/6J mice; conditions: for Cmax: male, C57BL/6J, po
Description: Pharmacokinetics: Male C57BL/6J mice (7-9 weeks, N=3 in each group) were used in this study. Mice were fasted at least 12 hr prior to administration of test article and have access to food ad libitum 4 hr post dosing. Appropriate amount of test article was accurately weighted and mixed with the appropriate volume of vehicle to get a clear oral solution. The formulations were prepared on the day of dosing, and mice were dosed via either orally gavage or intravenous injection, up to 4 hr after formulations were prepared. About 30 μL blood per time point was collected from the saphenous vein followed by plasma preparation. Dose formulation and sample analysis was performed by LC-MS/MS method. Plasma concentration versus time data was analyzed by non-compartmental method.

[7] = mouse, plasma, oral administration of 10 and 20 mg/kg, C57BL/6J male mice

Row | Compound | Papp at 2.5 h, 2 μM (P-gp (MDR1)) | Ki (CB1 receptor [1]) | WIN55,212-induced catalepsy (mice [2]) | mCB1R GTPγ[^35S] (activity) (CB1 receptor [3]) | anxiogenic behavior in the Elevated Plus Maze (mice [4]) | affinity / potency against the CB1 receptor (in words) (CB1 receptor [5]; CB1 receptor (mouse/human)) | Ki (CB1 receptor [5]; mouse (m) CB1 receptor, read-out: CB1R Ki (nM) (m)) | Oral bioavail (%) ([6]; absolute, oral 10 and 20 mg/kg vs IV 1 mg/kg, C57BL/6J male mice) | Cmax ([6]; mouse, plasma, 10 mg/kg, oral 10 mg/kg, mice) | Cmax ([6]; mouse, plasma, 20 mg/kg, oral 20 mg/kg, mice) | Cmax ([6]; mouse, plasma, 20 mg/kg, oral administration of 10 and 20 mg/kg (range over both doses), C57BL/6J male mice) | Tmax [6, 7] | half-life [6, 7] | T1/2 ([6]; oral administration of 10 and 20 mg/kg, C57BL/6J male mice)
1 | O=S(=O)(NC1CCCOc2c1nn(-c1ccccc1Cl)c2-c1ccc(Cl)cc1)c1ccc(Cl)cc1 (centres unmarked) [BNS808, 4-chloro-N-[2-(2-chlorophenyl)-3-(4-chlorophenyl)-5,6,7,8-tetrahydrooxepino[3,2-c]pyrazol-8-yl]benzenesulfonamide] | 0.26 ×10⁻⁶ cm/s | 0.7 nM | – | – | – | – | – | – | – | – | – | – | – | –
2 | Cc1ccc(C)c(OCCCC(C)(C)C(=O)NC2CCCOc3c2nn(-c2ccccc2Cl)c3-c2ccc(Cl)cc2)c1 (centres unmarked) [BNS822, N-[2-(2-chlorophenyl)-3-(4-chlorophenyl)-5,6,7,8-tetrahydrooxepino[3,2-c]pyrazol-8-yl]-5-(2,5-dimethylphenoxy)-2,2-dimethyl-pentanamide] | – | – | did not block; also recorded: no effect | Antagonist | nor did it induce a robust anxiogenic response; also recorded: no anxiogenic effect | high potency | 1.4 nM | 8.62-10.59% | 283 ng/mL | 811 ng/mL | 283 to 811 ng/mL | 2 h | 5.2 h | 5.2 h
